Results taken from US20240132449A1, “HETEROCYCLIC COMPOUNDS AND METHODS OF USE THEREOF” (1cBio, Inc., priority 2022, published 2024).
Where a name gives a salt, the structure may show the parent alone.

Key:
PARP1 = PARP1 (Homo sapiens, UniProt P09874); assay: PARP1 fluorescence polarization binding assay; conditions: binding IC50, GST-tagged PARP1 20 nM, PARPi-FL 3 nM
Description: Compounds of the present disclosure were tested in a PARP1 fluorescence polarization binding assay at Pharmaron (Beijing, P.R.China). In this biochemical assay, binding of test compound to recombinant human PARP1 reduces the amount of binding of a fluorescent probe, and consequently reduces the detected level of fluorescence polarization. Test compound stock solutions were prepared in DMSO and then serially diluted into 10 concentrations by 3-fold dilution in a 384-well plate using a TECAN EVO200. 60 nL of each dilution was transferred to the plate using an Echo550 (Labcyte), and then 10 μL 40 nM GST-tagged PARP1 (BPS Bioscience, Cat #80501), diluted in assay buffer (50 mM Tris pH 8.0, 0.001% Triton X-100, 10 mM MgCl2, 150 mM NaCl), was added to the plate. After a centrifugation at 1000 rpm for 1 min, the assay plate was incubated for 30 min at RT. 10 μL 6 nM PARPi-FL (TOCRIS, Cat #6461), diluted using assay buffer, was then added to the plate. The final concentrations of PARP1 and PARPi-FL were 20 nM and 3 nM, respectively, in a total volume of 20 μL. After a centrifugation at 1000 rpm for 1 min, the assay plate was incubated for 4 h at RT. Samples in each well were read using an Envision instrument (Perkin-Elmer; Ex=480 nm Em=FITC FP-P pol 535 nm & FITC FP-S pol 535 nm). Percent inhibition was calculated from mP values using Inhibition (%)=[1−(mPc−mPL)/(mPH−mPL)]×100%, where mPc, mPL, and mPH are the mP values of test compound, Low controls, and High controls, respectively. Binding IC50 values were calculated using XLFit (equation 201: y=A+((B−A)/(1+((x/C)^D))), where A=bottom, B=top, C=IC50, and D=slope) with a floating top and bottom for curves. Binding IC50 values are shown in Table A and are presented in ranges, in which “+++”<100 nM, 100 nM≤“++”<3000 nM, and “+”≥3000 nM.

recombinant human PARP2 = recombinant human PARP2 (Homo sapiens, UniProt Q9UGN5); assay: PARP2 fluorescence polarization binding assay; conditions: for IC50: binding IC50, GST-tagged PARP2 20 nM, PARPi-FL 3 nM; for inhibition at 10 µM: read-out: PARP2 % inh at 10 μM
Chain of recombinant human PARP2 (Q9UGN5 whole entry): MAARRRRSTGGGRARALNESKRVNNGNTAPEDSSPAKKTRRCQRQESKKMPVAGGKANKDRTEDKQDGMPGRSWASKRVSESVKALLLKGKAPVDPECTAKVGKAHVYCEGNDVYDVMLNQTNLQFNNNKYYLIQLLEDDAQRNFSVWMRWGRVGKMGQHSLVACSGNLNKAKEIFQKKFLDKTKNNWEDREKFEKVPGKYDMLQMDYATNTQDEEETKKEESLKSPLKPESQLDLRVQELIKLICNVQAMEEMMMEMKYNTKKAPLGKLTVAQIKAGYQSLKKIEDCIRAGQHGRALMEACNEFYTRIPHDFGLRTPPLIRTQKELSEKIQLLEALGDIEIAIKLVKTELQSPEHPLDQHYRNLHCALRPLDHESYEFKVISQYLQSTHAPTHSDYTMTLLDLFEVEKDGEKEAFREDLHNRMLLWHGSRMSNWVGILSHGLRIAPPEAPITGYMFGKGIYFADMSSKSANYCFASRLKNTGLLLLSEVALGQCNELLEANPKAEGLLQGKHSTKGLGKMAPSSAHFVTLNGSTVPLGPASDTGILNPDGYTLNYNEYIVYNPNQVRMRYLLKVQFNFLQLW
Description: Compounds of the present disclosure were tested in a PARP2 fluorescence polarization binding assay at Pharmaron (Beijing, P.R. China). In this biochemical assay, binding of test compound to recombinant human PARP2 reduces the amount of binding of a fluorescent probe, and consequently reduces the detected level of fluorescence polarization. Test compound stock solutions were prepared in DMSO and then serially diluted into 10 concentrations by 3-fold dilution in a 384-well plate using a TECAN EVO200. Alternatively, a single concentration was prepared. 60 nL of each dilution was transferred to the plate using an Echo550 (Labcyte), and then 10 μL 40 nM GST-tagged PARP2 (BPS Bioscience, Cat #80502), diluted in assay buffer (50 mM Tris pH 8.0, 0.001% Triton X-100, 10 mM MgCl2, 150 mM NaCl), was added to the plate. After a centrifugation at 1000 rpm for 1 min, the assay plate was incubated for 30 min at RT. 10 μL 6 nM PARPi-FL (TOCRIS, Cat #6461), diluted using assay buffer, was then added to the plate. […] After a centrifugation at 1000 rpm for 1 min, the assay plate was incubated for 4 h at RT. Samples in each well were read using an Envision instrument (Perkin-Elmer; Ex=480 nm Em=FITC FP-P pol 535 nm & FITC FP-S pol 535 nm). […] Binding IC50 values were calculated using XLFit (equation 201: […])^D))), where A=bottom, B=top, C=IC50, and D=slope) with a floating top and bottom for curves.

[1] = system: DLD-1 BRCA2(−/−) colorectal adenocarcinoma cells; assay: Cell viability assay (Cell Titer-Glo), DLD-1 BRCA2(−/−); assay type: cell-based; conditions: Homo sapiens, DLD-1, 168 h; 7 days incubation, 200 cells/well
Description: (§1) Compounds of the present disclosure were tested for their effects on the viability of cancer cells. DLD-1 wild-type and DLD-1 BRCA2(−/−) colorectal adenocarcinoma cells, an isogenic pair of cell lines differing in the presence and absence, respectively, of both BRCA2 alleles, were used. The cells were harvested during the logarithmic growth period, counted, and seeded at 50 cells/well for DLD-1 wild-type and 200 cells/well for DLD-1 BRCA2(−/−) in a 384-well cell culture plate. After seeding, cells were incubated at 37° C., 5% CO2 overnight. Cells were treated with serially diluted test compounds at 10 concentrations (e.g., from 1.5 nM-30 μM) for generation of dose response curves, or at a single concentration. The plate was further incubated for another 7 days in a humidified incubator at 37° C. and 5% CO2. Cell viability was assessed by luminescence measurement after addition of Cell Titer-Glo reagent (Promega, Madison, Wis.) according to the manufacturer's instructions. Cell viability IC50 values were calculated using XLFit, equation 201: y=A+((B−A)/(1+((x/C)^D))), where A=bottom, B=top, C=IC50, and D=slope. IC50 values are shown in Table B and are presented in ranges, in which “+++”<300 nM, 300 nM≤“++”<3000 nM, and “+”≥3000 nM. Values for percent inhibition at 10 μM are also shown in Table B and are presented in ranges, in which “***”≥67%, 33%≤“**”<67%, and “*”<33%. Effects of the test compounds on the viability of other cell lines such as MDA-MB-436, MDA-MB-231, SUM149PT, HCC1395, and UWB1.289 are determined in an analogous method.

[2] = system: DLD-1 wild-type colorectal adenocarcinoma cells; assay: Cell viability assay (Cell Titer-Glo), DLD-1 wild-type; assay type: cell-based; conditions: Homo sapiens, DLD-1, 168 h, 7 days incubation; for inhibition at 10 µM: read-out: DLD-1 wild-type % inh at 10 μM; for IC50: 50 cells/well
Description: as §1

Chain of PARP1 (P09874 whole entry): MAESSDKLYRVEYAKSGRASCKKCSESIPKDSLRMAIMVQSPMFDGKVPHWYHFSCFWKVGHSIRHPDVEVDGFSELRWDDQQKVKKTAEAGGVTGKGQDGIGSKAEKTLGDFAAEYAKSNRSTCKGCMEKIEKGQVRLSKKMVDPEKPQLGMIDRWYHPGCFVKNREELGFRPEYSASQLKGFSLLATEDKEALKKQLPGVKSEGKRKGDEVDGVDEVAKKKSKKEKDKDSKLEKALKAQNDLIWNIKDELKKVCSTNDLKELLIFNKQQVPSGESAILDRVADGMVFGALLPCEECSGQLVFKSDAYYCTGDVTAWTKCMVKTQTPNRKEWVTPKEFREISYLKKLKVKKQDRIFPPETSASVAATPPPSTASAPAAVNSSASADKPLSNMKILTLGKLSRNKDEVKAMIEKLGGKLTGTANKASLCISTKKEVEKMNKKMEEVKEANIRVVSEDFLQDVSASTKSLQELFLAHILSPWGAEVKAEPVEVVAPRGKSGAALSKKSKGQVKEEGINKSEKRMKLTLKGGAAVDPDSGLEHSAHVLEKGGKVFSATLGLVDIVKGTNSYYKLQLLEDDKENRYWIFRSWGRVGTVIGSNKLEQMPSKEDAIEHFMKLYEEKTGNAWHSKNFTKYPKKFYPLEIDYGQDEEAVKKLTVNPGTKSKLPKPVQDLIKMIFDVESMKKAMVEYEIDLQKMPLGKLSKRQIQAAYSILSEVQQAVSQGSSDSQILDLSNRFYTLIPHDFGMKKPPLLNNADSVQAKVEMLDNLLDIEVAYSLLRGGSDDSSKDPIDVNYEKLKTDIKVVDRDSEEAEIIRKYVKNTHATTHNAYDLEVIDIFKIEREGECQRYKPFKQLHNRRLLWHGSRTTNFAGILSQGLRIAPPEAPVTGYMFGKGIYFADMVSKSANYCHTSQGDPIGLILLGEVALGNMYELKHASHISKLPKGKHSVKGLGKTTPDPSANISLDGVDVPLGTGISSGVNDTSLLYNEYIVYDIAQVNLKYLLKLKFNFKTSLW

| SMILES | IC50 (PARP1) | IC50 (recombinant human PARP2) | inhibition at 10 µM (recombinant human PARP2) | IC50 [1] | inhibition at 10 µM [2] | IC50 [2] |
| --- | --- | --- | --- | --- | --- | --- |
| CCn1c(=O)[nH]c2cc(CN3CCN(c4ccc(C(=O)NC#N)nc4C)CC3)sc2c1=O [Compound 313, N-cyano-5-(4-((3-ethyl-2,4-dioxo-1,2,3,4-tetrahydrothieno[3,2-d]pyrimidin-6-yl)methyl)piperazin-1-yl)-6-methylpicolinamide, ammonia salt] | 0.1 to 3 µM | > 3 µM | 33 to 67% |  |  |  |
| CCn1c(=O)[nH]c2cc(CN3CCN(c4ccc(C(=O)NC)nc4C)CC3)c(Br)cc2c1=S [Compound 504, 5-(4-((6-bromo-3-ethyl-2-oxo-4-thioxo-1,2,3,4-tetrahydroquinazolin-7-yl)methyl)piperazin-1-yl)-N,6-dimethylpicolinamide] | 0.1 to 3 µM | > 3 µM | 33 to 67% | 0.3 to 3 µM | < 33% | > 3 µM |
| CCn1c(=O)[nH]c2cc(CN3CCN(c4ccc(C(N)=O)nc4C)CC3)sc2c1=O [Compound 516, 5-(4-((3-ethyl-2,4-dioxo-1,2,3,4-tetrahydrothieno[3,2-d]pyrimidin-6-yl)methyl)piperazin-1-yl)-6-methylpicolinamide] | < 0.1 µM | > 3 µM | 33 to 67% | > 3 µM | < 33% | > 3 µM |
| CCn1c(=O)[nH]c2cc(CN3CCN(c4ccc(C(=O)NC)nc4C)CC3)cc(Br)c2c1=S [Compound 501, 5-(4-((5-bromo-3-ethyl-2-oxo-4-thioxo-1,2,3,4-tetrahydroquinazolin-7-yl)methyl)piperazin-1-yl)-N,6-dimethylpicolinamide formate] | < 0.1 µM | > 3 µM | 33 to 67% | 0.3 to 3 µM | < 33% | > 3 µM |
| CNC(=O)c1ccc(N2CCN(Cc3ccc4c(=O)n(C(C)C)c(=O)[nH]c4c3)CC2)cn1 [Compound 4, 5-(4-((3-isopropyl-2,4-dioxo-1,2,3,4-tetrahydroquinazolin-7-yl)methyl)piperazin-1-yl)-N-methylpicolinamide] | < 0.1 µM | > 3 µM | 33 to 67% | > 3 µM | 33 to 67% | > 3 µM |
| CCn1c(=O)[nH]c2cc(CN3CCN(c4ccc(C(=O)NC)cc4F)CC3)sc2c1=O [Compound 232] | < 0.1 µM | > 3 µM | 33 to 67% | > 3 µM | < 33% | > 3 µM |
| CCn1c(=O)[nH]c2cc(CN3CCC(c4ccc(C(=O)NC)nc4C)CC3)ccc2c1=S [Compound 498, 5-(1-((3-ethyl-2-oxo-4-thioxo-1,2,3,4-tetrahydroquinazolin-7-yl)methyl)piperidin-4-yl)-N,6-dimethylpicolinamide formate] | < 0.1 µM | > 3 µM | 33 to 67% | > 3 µM | 33 to 67% | > 3 µM |
| CCN1Cc2ccc(CN3CCN(c4ccc(C(=O)NC)nc4C)CC3)cc2NC1=O [Compound 202, 5-{4-[(3-ethyl-2-oxo-1,4-dihydroquinazolin-7-yl)methyl]piperazin-1-yl}-N,6-dimethylpyridine-2-carboxamide] | < 0.1 µM |  | 33 to 67% | < 0.3 µM | < 33% | > 3 µM |
| CNC(=O)c1ccc(N2CCN(Cc3ccc4c(=O)n(C5CC5)c(=O)[nH]c4c3)CC2)cn1 [Compound 5, 5-(4-((3-cyclopropyl-2,4-dioxo-1,2,3,4-tetrahydroquinazolin-7-yl)methyl)piperazin-1-yl)-N-methylpicolinamide] | < 0.1 µM | > 3 µM | 33 to 67% | > 3 µM | < 33% | > 3 µM |
| CCn1c(=O)[nH]c2cc(CN3CCN(c4ccc(C(=O)NC)nc4)CC3)sc2c1=O [Compound 86, 5-(4-((3-ethyl-2,4-dioxo-1,2,3,4-tetrahydrothieno[3,2-d]pyrimidin-6-yl)methyl)piperazin-1-yl)-N-methylpicolinamide formate] | < 0.1 µM | > 3 µM | 33 to 67% | < 0.3 µM | < 33% |  |
| CNC(=O)c1ccc(N2CCN(Cc3ccc4c(=O)n(C)c(=O)[nH]c4c3)CC2)cn1 [Compound 2] | < 0.1 µM | > 3 µM | 33 to 67% | 0.3 to 3 µM | < 33% | > 3 µM |
| CCC(=O)c1ccc(N2CCN(Cc3cc4[nH]c(=O)n(CC)c(=O)c4s3)CC2)c(C)n1 [Compound 326, 3-ethyl-6-((4-(2-methyl-6-propionylpyridin-3-yl)piperazin-1-yl)methyl) thieno[3,2-d]pyrimidine-2,4(1H,3H)-dione formate] | < 0.1 µM | > 3 µM | 33 to 67% | > 3 µM | < 33% | > 3 µM |
| CCn1c(=O)[nH]c2cc(CN3CCN4c5ccc(C(=O)NC)nc5OC[C@H]4C3)sc2c1=O [Compound 524, (R)-3-((3-ethyl-2,4-dioxo-1,2,3,4-tetrahydrothieno[3,2-d]pyrimidin-6-yl)methyl)-N-methyl-1,2,3,4,4a,5-hexahydropyrazino[1,2-d]pyrido[2,3-b][1,4]oxazine-8-carboxamide] | < 0.1 µM | > 3 µM | 33 to 67% | > 3 µM | < 33% |  |
| CNC(=O)c1ccc(N2CCN(Cc3ccc4c(=O)[nH]c(=O)[nH]c4c3)CC2)cn1 [Compound 1, 5-(4-((2,4-dioxo-1,2,3,4-tetrahydroquinazolin-7-yl)methyl)piperazin-1-yl)-N-methylpicolinamide formate] | 0.1 to 3 µM |  | 33 to 67% |  |  |  |
| CCn1c(=O)[nH]c2cc(C(=O)N3CCN(c4ccc(C(=O)NC)nc4)CC3)ccc2c1=O [Compound 130, 5-(4-(3-ethyl-2,4-dioxo-1,2,3,4-tetrahydroquinazoline-7-carbonyl)piperazin-1-yl)-N-methylpicolinamide] | < 0.1 µM | > 3 µM | 33 to 67% |  |  |  |
